Reference: US20230150951A1, “2,5- OR 2,6-DISUBSTITUTED HYDROQUINONE DERIVATIVES WITH AT LEAST ONE CARBOXY, SULFO OR AMIDO GROUP USEFUL AS MEDICAMENTS” (OM PHARMA SA, priority 2020, published 2023)

Tests used:
Assay type in all cases: cell-based
FGF-1 = biological target: T1, FGF-1 (Homo sapiens, UniProt P05230); experiment: FGF-1 induced sprouting of HUVEC, spheroid-based cellular angiogenesis assay; conditions: FGF-1 25 ng/mL preincubated with compound, 24 h
T1 construct: purchased Peprotech 100-17A
T1 sequence (P05230 whole entry): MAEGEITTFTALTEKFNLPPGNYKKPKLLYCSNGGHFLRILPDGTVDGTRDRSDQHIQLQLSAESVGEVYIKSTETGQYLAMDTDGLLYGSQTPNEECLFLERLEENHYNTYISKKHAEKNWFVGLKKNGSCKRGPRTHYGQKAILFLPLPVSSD
Procedure: (§1) Aim of this in vitro method is to assess compounds effects on FGF-2, FGF-1, or VEGF-A induced sprouting of human umbilical vein endothelial cells (HUVEC) in the spheroid-based cellular angiogenesis assay. Before adding the growth factors to the cells, they were preincubated with the compound. Sunitinib was tested as a control (without preincubation).
(§2) IC50 values determined for the tested compounds are expressed in microM [μM] and the values for the inhibition of FGF-1, FGF2 and VEGF-A induced growth (sprouting) are listed after each compound in the examples after chemical characterization.
(§3) Sprouting test was performed on the compounds dissolved in DMSO to reach 100-fold concentrated stock solutions and dissolved in culture media. Sunitinib as reference compound was provided by ProQinase GmbH. Growth factors were purchased from rhFGF-basic (FGF-2), Peprotech, New Jersey, USA, #100-18C, Lot #0415571; rhFGF-acidic (FGF-1), Peprotech, New Jersey, USA, #100-17A, Lot #031207; hVEGF-A165 (ProQinase GmbH, Freiburg, Germany; 05.02.2010) were used for stimulation of HUVEC cells growth.
(§4) Test system: Endothelial cells from human umbilical vein (HUVEC) from pooled donors were stored frozen with 70% medium, 20% FCS, 10% DMSO at about 1×10^6 cells/ampoule. HUVEC cells, primary human umbilical vein endothelial cells (PromoCell, Heidelberg, Germany), were used after passage 3 to 4. Morphology of the cells are adherent, cobblestone-like growing as monolayer and were cultured in endothelial cell growth and basal medium (ECGM/ECBM, PromoCell). The subculture was split 1:3; every 3-5 days, seed out at ca. 1×10^4 cells/cm^2 and incubated at 37° C. with 5% CO2 with a doubling time 24-48 hours
(§5) Dilution of test compounds: 100× concentrated solutions (concerning to the final assay concentrations) of each test compound were prepared with the appropriate solvent (in DMSO or in water). These 100×compound solutions were further diluted in endothelial cell growth and basal medium (ECBM) 1:7.5 to get a 13.33× concentrated solution. 75 μl of the 13.33×solution was subsequently mixed with 25 μl of 40× concentrated stimulus (solved in ECBM), resulting in a 10×concentrated stimulus/compound mixture. This mixture (100 μl) was incubated for 30 min at 37° C. and then added to 900 μl gel, containing the HUVEC spheroids (resulting in the final assay concentration).
(§6) Test method: the experiments were pursued in modification of the originally published protocol (Korff and Augustin: J Cell Sci 112: 3249-58, 1999). In brief, spheroids were prepared as described (Korff and Augustin: J Cell Biol 143: 1341-52, 1998) by pipetting 400 HUVEC in a hanging drop on plastic dishes to allow overnight spheroid aggregation. 50 HUVEC spheroids were then seeded in 0.9 ml of a collagen gel and pipetted into individual wells of a 24 well plate to allow polymerization. The test compounds were preincubated with the growth factors (FGF-1, FGF-2 or VEGF-A final concentration 25 ng/mL) in a 10-fold concentrated solution and subsequently, 100 μl of this solution was added on top of the polymerized gel. All compounds were diluted in solvent (DMSO or water) as 100×stocks first (which means 100×stocks of each final assay concentration were prepared in solvent). Subsequently, these stocks were further diluted in medium (resulting in the 13.33×stocks of each final assay concentration) with final concentrations tested: 100, 50, 25, 12.5, 6.25, 3.13 and 1.56×10^−6 M). Plates were incubated at 37° C. for 24 hours and fixed by adding 4% PFA (Roth, Karlsruhe, Germany).
(§7) Quantification of growth factor inhibition: sprouting intensity of HUVEC spheroids treated with the growth factor and the inhibitors were quantitated by an image analysis system determining the cumulative sprout length per spheroid (CSL).

FGF-2 = biological target: T2, FGF-2 (Homo sapiens, UniProt P09038); experiment: FGF-2 induced sprouting of HUVEC, spheroid-based cellular angiogenesis assay; conditions: FGF-2 25 ng/mL preincubated with compound, 24 h
T2 construct: purchased Peprotech 100-18C
T2 sequence (P09038 134-288): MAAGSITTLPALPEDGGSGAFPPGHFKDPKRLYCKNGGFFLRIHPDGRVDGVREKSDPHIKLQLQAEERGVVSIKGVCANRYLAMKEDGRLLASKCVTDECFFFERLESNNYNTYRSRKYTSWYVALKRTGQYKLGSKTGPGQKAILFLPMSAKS
Procedure: as §1, §2, §3, §4, §5, §6, §7

VEGFR-2 = biological target: T3, VEGFR-2 (Homo sapiens, UniProt P35968); experiment: VEGF-165 induced phosphorylation of VEGF-Receptor on HUVEC; conditions: HUVEC preincubated 60 min, VEGF165 25 ng/mL 2 min; read-out: VEGFR-Phosphorylation inhibition IC50
T3 construct: endogenous in cells; host or cells: primary HUVEC
T3 sequence (P35968 20-1356): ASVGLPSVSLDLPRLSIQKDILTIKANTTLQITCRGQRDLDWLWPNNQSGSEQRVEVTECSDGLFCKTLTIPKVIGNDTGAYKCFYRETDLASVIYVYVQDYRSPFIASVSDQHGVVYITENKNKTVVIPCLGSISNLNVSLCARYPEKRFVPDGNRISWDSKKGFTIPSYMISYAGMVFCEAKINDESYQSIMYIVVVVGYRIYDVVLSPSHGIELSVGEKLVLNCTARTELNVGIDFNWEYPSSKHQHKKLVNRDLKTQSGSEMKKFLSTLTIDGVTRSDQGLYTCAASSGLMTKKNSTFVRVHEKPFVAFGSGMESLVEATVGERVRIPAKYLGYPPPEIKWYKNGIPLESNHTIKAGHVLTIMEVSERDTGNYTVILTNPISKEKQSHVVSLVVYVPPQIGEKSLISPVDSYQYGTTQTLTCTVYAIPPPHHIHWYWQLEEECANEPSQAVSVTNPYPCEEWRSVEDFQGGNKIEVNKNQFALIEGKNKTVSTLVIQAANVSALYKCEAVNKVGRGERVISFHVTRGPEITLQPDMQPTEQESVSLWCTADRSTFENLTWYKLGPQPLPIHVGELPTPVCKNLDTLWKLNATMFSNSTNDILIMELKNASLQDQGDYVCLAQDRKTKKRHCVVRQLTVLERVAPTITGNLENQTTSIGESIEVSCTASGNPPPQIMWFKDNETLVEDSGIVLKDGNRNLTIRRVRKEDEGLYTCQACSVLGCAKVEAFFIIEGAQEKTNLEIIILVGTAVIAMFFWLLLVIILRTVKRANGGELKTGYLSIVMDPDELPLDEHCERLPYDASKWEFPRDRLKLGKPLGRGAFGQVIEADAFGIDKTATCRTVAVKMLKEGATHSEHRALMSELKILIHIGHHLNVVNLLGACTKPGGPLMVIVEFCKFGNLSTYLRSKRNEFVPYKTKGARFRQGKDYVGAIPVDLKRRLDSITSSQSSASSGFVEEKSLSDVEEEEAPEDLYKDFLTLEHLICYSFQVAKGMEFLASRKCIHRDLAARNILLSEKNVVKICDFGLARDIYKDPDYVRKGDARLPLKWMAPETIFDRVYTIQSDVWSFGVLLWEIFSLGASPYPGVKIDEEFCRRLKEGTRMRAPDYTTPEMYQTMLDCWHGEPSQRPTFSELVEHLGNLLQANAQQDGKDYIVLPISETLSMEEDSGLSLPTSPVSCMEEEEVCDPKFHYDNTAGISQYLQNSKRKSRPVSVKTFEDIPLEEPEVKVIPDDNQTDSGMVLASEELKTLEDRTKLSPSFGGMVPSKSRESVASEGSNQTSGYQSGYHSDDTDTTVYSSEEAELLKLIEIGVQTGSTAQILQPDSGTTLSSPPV
Procedure: Cell culture: Primary human umbilical vein endothelial cells (HUVECs) were routinely cultured in 0.1% gelatin pre-coated flasks or dishes, up to passage 6. […]
Rabbit primary antibodies for VEGFR-2, p-Tyr1175 were acquired from Cell Signaling Technology (Leiden, The Netherlands). Phospho-VEGFR-2 (Tyr1175) Sandwich ELISA Kit was from Cell Signaling Technology.
[…] Western blot analysis was performed using anti-phospho-VEGFR-2 antibody and total VEGFR-2 was used as a loading control after membrane stripping.
Inhibition of VEGFR-2-phosphorylation results are expressed as IC50 in microM [μM] versus VEGF-treated HUVECs control without inhibitory compound.

Human neutrophils [1] = experiment: Inhibition of ROS production in human neutrophils (isoluminol chemiluminescence); conditions: Homo sapiens, Neutrophil, fMLP+TNF-α stimulated PMN
Source text: NADPH oxidase, located in the plasma membrane and in the membranes of specific granules, produces superoxide anions from which other ROS, such as hydrogen peroxide, singlet oxygen, hypochlorite, and active hydroxyl radicals. ROS are released into the surrounding medium or into a membrane-enclosed subcellular organelle. One quick and sensitive method for measuring the generation of these metabolites is chemiluminescence (CL). Isoluminol amplified CL technique, is very sensitive and widely used to study respiratory burst (mainly extracellular production of ROS) induced in neutrophils.
Human neutrophils were isolated from buffy coats which obtained from healthy donors. The isolated neutrophils (3×10^6/ml) were suspended in Hanks' Balanced Salt Solution (HBSS) with Calcium and Magnesium. Neutrophils were pre-incubated with the compounds at different concentrations (0.1, 0.3, 1, 3 and 10 μM) for 30 min at 37° C. The black 96-well cell culture plates were coated with human fibrinogen (0.25 mg/ml in PBS), and incubated overnight at 4° C. or 2 hr at 37° C. Then the plates were washed with endotoxin-free PBS. The neutrophils were incubated (priming) with TNF-α (20 ng/ml) for 10 minutes at 37° C. Thereupon the 75 μl of cell suspension and 75 μl (Isoluminol+HRP solution) were added to each well. The chemiluminescence was recorded (every 25 sec for 250 sec) after fMLP (1 μM) activation using a Multilabel Reader victor3 (Perkin Elmer, USA). Background values, defined as the mean chemiluminescent values of isoluminol diluted in HBSS, were subtracted from all readings (CPS, count per second). The assays were done in duplicate or triplicate.

Human neutrophils [2] = experiment: Neutrophil adhesion under static conditions; conditions: fMLP-stimulated adhesion to fibrinogen; method: 40 μM and 80 μM, concentration of the value not stated
Procedure: Human neutrophils obtained from buffy coats of healthy donors were suspended at 3×10^6/ml in adhesion buffer (PBS containing 1 mM CaCl2)/MgCl2 and 10% FCS, pH 7.2). Neutrophils were preincubated for 30 min at 37° C. with 40 μM and 80 μM of the compounds.
Adhesion assays were performed on 18-well glass slides coated for 18 h at 4° C. with human fibrinogen (20 μg/well in endotoxin-free PBS); 20 μl of cell suspension were added to each well and stimulated for 1 min at 37° C. with 5 μl of fMLP 1 nM final concentration. After washing, adherent cells were fixed in glutaraldehyde 1.5% in PBS and counted by computer-assisted enumeration. Statistical analysis was performed by calculating mean and standard deviation (SD); significance was calculated by unpaired t-test. All statistical analyses were performed using GraphPad Prism 6 (GraphPad Software).

IC50 (FGF-1) | IC50 (FGF-2) | IC50 (VEGFR-2) | IC50 (Human neutrophils [1]) | SMILES | inhibition at 0.3 µM (Human neutrophils [1]) | Neutrophil adhesion inhibition (Human neutrophils [2])
47 µM | 50 µM | 3.61 µM | 1 µM | O=C(O)c1cc(O)c(CS(=O)(=O)Cc2cc(O)c(C(=O)O)cc2O)cc1O [IIIc-059a, 4-((2,5-Dihydroxy-4-carboxyphenyl)methylsulfonylmethyl)-2,5-dihydroxybenzoic acid] | 66.4% | 14.67%
8.6 µM | 11 µM | ≥ 100 µM | 0.408 µM | O=C(O)c1ccccc1NC(=O)c1cc(O)cc(C(=O)O)c1O [IIa-001a, 3-(2-carboxyphenylaminocarbonyl)-2,5-dihydroxybenzoic acid] | 30.5% | 36.24%
≥ 200 µM | 42 µM | ≥ 100 µM | – | CCOC(=O)c1cc(O)cc(C(=O)Nc2ccccc2-c2nnn[nH]2)c1O [IIa-001aTz-E1, ethyl 3-(2-(1H-tetrazol-5-yl)phenylaminocarbonyl)-2,5-dihydroxybenzoate] | 68.9% | 81.94%
22 µM | 13 µM | 2.5 µM | – | O=C(O)c1ccc(NC(=O)c2cc(O)cc(C(=O)O)c2O)cc1 [IIa-003a, 3-(4-carboxyphenylaminocarbonyl)-2,5-dihydroxybenzoic acid] | 59.3% | 35.27%
47 µM | 33 µM | ≥ 100 µM | 1 µM | O=C(O)c1cc(NC(=O)c2cc(O)cc(C(=O)O)c2O)ccc1O [IIa-004a, 3-(3-carboxy-4-hydroxyphenylaminocarbonyl)-2,5-dihydroxybenzoic acid] | 63.5% | 36%
141 µM | 123 µM | ≥ 100 µM | 1.18 µM | O=C(O)c1cc(O)cc(C(=O)Nc2cccc(C(=O)O)c2C(=O)O)c1O [IIa-011a, 3-(3-carboxy-2,5-dihydroxybenzamido)phthalic acid] | 58.1% | 26%
35 µM | 32 µM | 4.9 µM | 0.914 µM | O=C(O)Cc1cccc(NC(=O)c2cc(O)cc(C(=O)O)c2O)c1 [IIa-033a, 3-(3-(carboxymethyl)phenylaminocarbonyl)-2,5-dihydroxybenzoic acid] | 50.6% | 11.75%
35 µM | 36 µM | 6.1 µM | – | CCOC(=O)c1cc(O)c(C(=O)Nc2ccc(O)c(C(=O)OC)c2)cc1O [Ia-004a-E2, ethyl 2,5-dihydroxy-4-(4-hydroxy-3-(methoxycarbonyl)phenylaminocarbonyl)benzoate] | 85.3% | 97.65%
60 µM | 165 µM | ≥ 100 µM | 1.32 µM | O=C(O)Cc1cccc(NC(=O)c2cc(O)c(C(=O)O)cc2O)c1 [Ia-033a, 4-(3-(carboxymethyl)phenylaminocarbonyl)-2,5-dihydroxybenzoic acid] | 57.7% | 38%
20 µM | 71 µM | 36 µM | 0.41 µM | O=C(O)c1cc(O)c(C(=O)NCc2ccc(O)c(O)c2)cc1O [Ia-035a, 4-(3,4-Dihydroxyphenylmethylaminocarbonyl)-2,5-dihydroxybenzoic acid] | 75.1% | 27%
23 µM | 49 µM | 0.25 µM | 7.9 µM | COC(=O)c1cc(NC(=O)c2cc(O)c(C(=O)Nc3ccc(O)c(C(=O)OC)c3)cc2O)ccc1O [Ic-007a-E2, methyl 5-(2,5-dihydroxy-4-(4-hydroxy-3-(methoxycarbonyl)phenylaminocarbonyl)benzamido)-2-hydroxybenzoate] | 21.3% | 2%
23 µM | 30 µM | 0.02 µM | – | COC(=O)c1cc(O)ccc1NC(=O)c1cc(O)c(C(=O)Nc2ccc(O)cc2C(=O)OC)cc1O [Ic-009a-E2, methyl 2-(2,5-dihydroxy-4-(4-hydroxy-2-(methoxycarbonyl)phenylaminocarbonyl)benzamido)-5-hydroxybenzoate] | 24.1% | 41.05%
